Experiments:
Assay in all cases: β-arrestin based GPCR screen (PathHunter / GPCRmax), antagonist mode
[1] = target: 168 GPCRs (Homo sapiens, UniProt P21453)
[2] = target: 168 GPCRs (Homo sapiens, UniProt P21462)
[3] = target: 168 GPCRs (Homo sapiens, UniProt P25090)
[4] = target: 168 GPCRs (Homo sapiens, UniProt P25105); settings: PTAFR
[5] = target: 168 GPCRs (Homo sapiens, UniProt P25116); settings: F2R; Antagonist; 1 uM
[6] = target: 168 GPCRs (Homo sapiens, UniProt P28566); settings: HTR1E
[7] = target: T1, 168 GPCRs (Homo sapiens, UniProt P30939); settings: HTR1F
T1 sequence (P30939 1-366): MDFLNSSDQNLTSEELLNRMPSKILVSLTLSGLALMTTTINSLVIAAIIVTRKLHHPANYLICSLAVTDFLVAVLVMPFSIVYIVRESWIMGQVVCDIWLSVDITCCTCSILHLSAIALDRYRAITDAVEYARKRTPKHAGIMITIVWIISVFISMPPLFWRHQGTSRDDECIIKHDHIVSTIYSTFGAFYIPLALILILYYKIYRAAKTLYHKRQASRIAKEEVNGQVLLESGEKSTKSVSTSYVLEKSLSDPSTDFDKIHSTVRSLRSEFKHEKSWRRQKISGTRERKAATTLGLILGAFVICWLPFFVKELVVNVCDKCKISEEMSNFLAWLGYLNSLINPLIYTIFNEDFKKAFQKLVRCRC

[8] = target: 168 GPCRs (Homo sapiens, UniProt P30989)
[9] = target: 168 GPCRs (Homo sapiens, UniProt P32245); settings: MC4R
Chain of 168 GPCRs (Homo sapiens, UniProt P32245) (P32245 whole entry): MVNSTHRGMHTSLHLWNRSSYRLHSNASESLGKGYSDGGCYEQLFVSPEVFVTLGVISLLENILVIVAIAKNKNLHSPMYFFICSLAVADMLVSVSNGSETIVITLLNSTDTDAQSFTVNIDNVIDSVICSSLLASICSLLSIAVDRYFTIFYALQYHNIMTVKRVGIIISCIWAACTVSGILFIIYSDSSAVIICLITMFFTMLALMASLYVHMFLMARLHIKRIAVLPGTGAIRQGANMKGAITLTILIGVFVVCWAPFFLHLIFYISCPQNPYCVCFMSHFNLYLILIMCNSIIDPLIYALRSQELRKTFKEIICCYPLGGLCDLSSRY

[10] = target: 168 GPCRs (Homo sapiens, UniProt P41231)
Chain of 168 GPCRs (Homo sapiens, UniProt P41231) (P41231 whole entry): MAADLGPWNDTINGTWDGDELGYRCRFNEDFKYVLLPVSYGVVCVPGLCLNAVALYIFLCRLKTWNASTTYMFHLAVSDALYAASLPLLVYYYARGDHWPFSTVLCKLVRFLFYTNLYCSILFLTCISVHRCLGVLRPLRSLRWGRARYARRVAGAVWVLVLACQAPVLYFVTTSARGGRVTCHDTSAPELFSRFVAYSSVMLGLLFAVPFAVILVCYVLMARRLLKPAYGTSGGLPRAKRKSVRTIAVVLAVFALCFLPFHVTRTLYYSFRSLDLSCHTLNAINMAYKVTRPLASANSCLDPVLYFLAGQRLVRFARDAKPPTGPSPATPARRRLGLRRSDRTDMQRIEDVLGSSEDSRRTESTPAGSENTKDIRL

[11] = target: 168 GPCRs (Homo sapiens, UniProt P46092); settings: CCR10, Antagonist
Chain of 168 GPCRs (Homo sapiens, UniProt P46092) (P46092 whole entry): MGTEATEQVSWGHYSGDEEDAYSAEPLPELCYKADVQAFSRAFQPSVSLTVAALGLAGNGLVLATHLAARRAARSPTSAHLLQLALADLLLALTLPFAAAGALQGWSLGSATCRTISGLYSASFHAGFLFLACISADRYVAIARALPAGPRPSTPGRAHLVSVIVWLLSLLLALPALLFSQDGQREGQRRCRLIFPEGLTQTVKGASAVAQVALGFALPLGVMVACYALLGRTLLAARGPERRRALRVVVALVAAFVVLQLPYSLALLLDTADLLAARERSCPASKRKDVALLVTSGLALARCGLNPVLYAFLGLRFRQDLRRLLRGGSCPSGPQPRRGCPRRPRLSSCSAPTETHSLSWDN

[12] = target: 168 GPCRs (Homo sapiens, UniProt P47871); settings: GCGR
Chain of 168 GPCRs (Homo sapiens, UniProt P47871) (P47871 26-477): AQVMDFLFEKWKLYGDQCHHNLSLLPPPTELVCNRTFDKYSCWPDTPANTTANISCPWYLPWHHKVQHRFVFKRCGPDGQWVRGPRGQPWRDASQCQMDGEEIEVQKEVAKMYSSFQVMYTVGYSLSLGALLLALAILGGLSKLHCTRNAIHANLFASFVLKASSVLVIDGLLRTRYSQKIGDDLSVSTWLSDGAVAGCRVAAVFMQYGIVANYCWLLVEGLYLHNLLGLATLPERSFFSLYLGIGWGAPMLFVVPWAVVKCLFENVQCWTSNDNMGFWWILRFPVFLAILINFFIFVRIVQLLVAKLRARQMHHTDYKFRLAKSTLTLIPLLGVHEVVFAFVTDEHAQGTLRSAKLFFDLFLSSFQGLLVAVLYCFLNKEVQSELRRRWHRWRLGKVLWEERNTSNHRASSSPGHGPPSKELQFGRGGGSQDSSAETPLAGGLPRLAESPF

[13] = target: 168 GPCRs (Homo sapiens, UniProt P47901); settings: AVPR1B, Antagonist
Chain of 168 GPCRs (Homo sapiens, UniProt P47901) (P47901 whole entry): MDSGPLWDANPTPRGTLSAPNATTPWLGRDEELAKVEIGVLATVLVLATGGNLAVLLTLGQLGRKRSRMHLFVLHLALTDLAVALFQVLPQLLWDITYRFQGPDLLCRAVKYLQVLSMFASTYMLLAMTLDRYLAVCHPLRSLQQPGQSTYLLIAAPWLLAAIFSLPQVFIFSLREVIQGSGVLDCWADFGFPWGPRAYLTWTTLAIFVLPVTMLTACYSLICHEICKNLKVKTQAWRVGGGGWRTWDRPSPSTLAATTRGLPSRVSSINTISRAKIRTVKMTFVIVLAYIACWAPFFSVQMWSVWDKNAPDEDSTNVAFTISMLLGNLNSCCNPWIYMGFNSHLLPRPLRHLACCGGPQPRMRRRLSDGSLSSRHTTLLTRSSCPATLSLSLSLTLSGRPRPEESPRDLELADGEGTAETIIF

[14] = target: 168 GPCRs (Homo sapiens, UniProt P51685); settings: CCR8, Antagonist
[15] = target: 168 GPCRs (Homo sapiens, UniProt P61073)
Chain of 168 GPCRs (Homo sapiens, UniProt P61073) (P61073 whole entry): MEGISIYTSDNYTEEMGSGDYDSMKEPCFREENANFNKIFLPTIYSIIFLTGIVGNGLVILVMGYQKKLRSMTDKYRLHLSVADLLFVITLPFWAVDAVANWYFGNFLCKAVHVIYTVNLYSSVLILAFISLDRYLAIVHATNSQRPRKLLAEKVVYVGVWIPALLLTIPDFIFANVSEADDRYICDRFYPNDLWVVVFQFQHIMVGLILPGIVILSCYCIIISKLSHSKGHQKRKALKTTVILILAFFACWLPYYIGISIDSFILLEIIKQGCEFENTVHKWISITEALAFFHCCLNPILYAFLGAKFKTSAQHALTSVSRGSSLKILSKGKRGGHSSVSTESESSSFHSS

[16] = target: 168 GPCRs (Homo sapiens, UniProt Q03431)
Chain of 168 GPCRs (Homo sapiens, UniProt Q03431) (Q03431 27-593): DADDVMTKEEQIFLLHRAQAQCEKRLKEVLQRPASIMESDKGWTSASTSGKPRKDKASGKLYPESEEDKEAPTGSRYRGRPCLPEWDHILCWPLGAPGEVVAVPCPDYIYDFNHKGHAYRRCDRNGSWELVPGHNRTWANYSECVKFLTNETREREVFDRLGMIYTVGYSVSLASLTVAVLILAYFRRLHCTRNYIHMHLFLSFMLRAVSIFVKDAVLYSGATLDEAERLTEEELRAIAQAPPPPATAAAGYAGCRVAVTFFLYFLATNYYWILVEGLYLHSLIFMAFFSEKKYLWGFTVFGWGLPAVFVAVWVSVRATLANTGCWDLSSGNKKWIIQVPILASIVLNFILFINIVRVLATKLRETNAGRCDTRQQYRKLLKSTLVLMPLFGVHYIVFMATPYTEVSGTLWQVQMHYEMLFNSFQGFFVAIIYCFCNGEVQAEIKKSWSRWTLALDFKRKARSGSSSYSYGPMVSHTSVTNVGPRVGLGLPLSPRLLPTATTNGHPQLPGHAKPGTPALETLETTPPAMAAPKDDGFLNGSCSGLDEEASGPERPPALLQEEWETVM

[17] = target: 168 GPCRs (Homo sapiens, UniProt Q96P65)
[18] = target: 168 GPCRs (Homo sapiens, UniProt Q9H244)
Chain of 168 GPCRs (Homo sapiens, UniProt Q9H244) (Q9H244 whole entry): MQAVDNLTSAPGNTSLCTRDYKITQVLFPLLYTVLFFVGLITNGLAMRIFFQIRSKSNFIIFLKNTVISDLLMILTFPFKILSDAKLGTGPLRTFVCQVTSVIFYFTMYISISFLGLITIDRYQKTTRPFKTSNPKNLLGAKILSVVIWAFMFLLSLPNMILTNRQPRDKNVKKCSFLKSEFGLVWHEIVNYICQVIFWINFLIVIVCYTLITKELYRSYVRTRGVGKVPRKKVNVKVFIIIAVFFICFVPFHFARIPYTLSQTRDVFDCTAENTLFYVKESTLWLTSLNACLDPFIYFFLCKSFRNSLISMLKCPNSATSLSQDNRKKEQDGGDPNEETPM

[19] = target: 168 GPCRs (Homo sapiens, UniProt Q9HC97)
Chain of 168 GPCRs (Homo sapiens, UniProt Q9HC97) (Q9HC97 whole entry): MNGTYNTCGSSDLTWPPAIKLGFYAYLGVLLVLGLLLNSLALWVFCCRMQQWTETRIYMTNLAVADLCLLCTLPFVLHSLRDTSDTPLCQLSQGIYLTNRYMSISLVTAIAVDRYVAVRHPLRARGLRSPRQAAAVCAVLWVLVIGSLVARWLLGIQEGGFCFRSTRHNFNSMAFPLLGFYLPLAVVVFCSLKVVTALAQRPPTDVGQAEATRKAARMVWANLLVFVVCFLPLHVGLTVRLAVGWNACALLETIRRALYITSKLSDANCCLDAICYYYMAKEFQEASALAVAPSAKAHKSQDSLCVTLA

[20] = test system: 168 GPCRs

Chain of 168 GPCRs (Homo sapiens, UniProt P21453) (P21453 whole entry): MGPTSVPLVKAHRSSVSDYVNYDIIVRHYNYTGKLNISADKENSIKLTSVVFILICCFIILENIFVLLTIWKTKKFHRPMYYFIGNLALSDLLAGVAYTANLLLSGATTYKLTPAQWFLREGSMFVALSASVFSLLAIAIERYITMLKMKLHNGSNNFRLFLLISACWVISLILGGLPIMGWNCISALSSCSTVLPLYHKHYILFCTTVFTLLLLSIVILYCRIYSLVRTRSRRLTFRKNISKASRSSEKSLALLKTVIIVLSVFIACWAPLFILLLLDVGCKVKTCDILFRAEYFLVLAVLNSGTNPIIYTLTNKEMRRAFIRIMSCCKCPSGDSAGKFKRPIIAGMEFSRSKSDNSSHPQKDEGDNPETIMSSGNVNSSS
Chain of 168 GPCRs (Homo sapiens, UniProt P28566) (P28566 whole entry): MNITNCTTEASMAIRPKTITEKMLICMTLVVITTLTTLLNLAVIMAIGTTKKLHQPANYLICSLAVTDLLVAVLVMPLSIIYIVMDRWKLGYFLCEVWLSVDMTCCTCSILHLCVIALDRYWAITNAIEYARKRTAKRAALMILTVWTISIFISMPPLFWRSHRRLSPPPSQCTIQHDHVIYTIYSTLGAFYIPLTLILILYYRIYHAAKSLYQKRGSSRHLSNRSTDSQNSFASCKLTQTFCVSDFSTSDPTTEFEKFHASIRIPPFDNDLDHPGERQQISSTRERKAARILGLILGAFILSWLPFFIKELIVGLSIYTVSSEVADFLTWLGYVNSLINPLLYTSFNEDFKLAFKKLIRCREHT
Chain of 168 GPCRs (Homo sapiens, UniProt P21462) (P21462 whole entry): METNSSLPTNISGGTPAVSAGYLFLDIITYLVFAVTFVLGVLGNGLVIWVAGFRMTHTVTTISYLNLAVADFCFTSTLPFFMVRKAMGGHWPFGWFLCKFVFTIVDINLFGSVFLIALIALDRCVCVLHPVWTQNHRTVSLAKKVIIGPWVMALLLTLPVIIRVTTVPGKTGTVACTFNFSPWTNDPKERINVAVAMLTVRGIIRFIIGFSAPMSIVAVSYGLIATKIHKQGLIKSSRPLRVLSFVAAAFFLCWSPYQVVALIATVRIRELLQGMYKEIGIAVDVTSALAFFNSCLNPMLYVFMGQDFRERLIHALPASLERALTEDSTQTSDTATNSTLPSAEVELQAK

Q: CNC(C)C(=O)c1ccc2c(c1)OCO2 (stereo not drawn) [methylone, 3,4-methylenedioxy-N-methylcathinone] was tested. Which activity at 10 µM ([1]; EDG1, Antagonist mode, 10 uM) did it give?
A: 10.5%

Q: And the activity at 1 µM ([1]; EDG1, Antagonist, 1 uM)?
A: 12.4%

Q: And the activity at 10 µM ([2]; FPR1, Antagonist mode, 10 uM)?
A: -11.4%

Q: And the activity at 1 µM ([2]; FPR1, Antagonist, 1 uM)?
A: -4.9%

Q: And the activity at 10 µM ([3]; FPRL1, Antagonist mode, 10 uM)?
A: 3.9%

Q: What about the activity at 1 µM ([3]; FPRL1, Antagonist, 1 uM) of the same compound?
A: 12.3%

Q: And the activity at 10 µM ([4]; Antagonist mode, 10 uM)?
A: -6.7%

Q: What about the activity at 1 µM ([4]; Antagonist, 1 uM) of the same compound?
A: 2%

Q: And the activity at 1 µM [5]?
A: -11.6%

Q: And the activity at 10 µM ([6]; Antagonist mode, 10 uM)?
A: 13.2%

Q: And the activity at 1 µM ([6]; Antagonist, 1 uM)?
A: 7.6%

Q: And the activity at 10 µM ([7]; Antagonist mode, 10 uM)?
A: 9.2%

Q: What about the activity at 1 µM ([7]; Antagonist, 1 uM) of the same compound?
A: 14.4%

Q: And the activity at 10 µM ([8]; NTSR1, Antagonist mode, 10 uM)?
A: -1.7%

Q: And the activity at 1 µM ([8]; NTSR1, Antagonist, 1 uM)?
A: -0.7%

Q: What about the activity at 10 µM ([9]; Antagonist mode, 10 uM) of the same compound?
A: -14%

Q: What about the activity at 1 µM ([9]; Antagonist, 1 uM) of the same compound?
A: -5.2%

Q: What about the activity at 10 µM ([10]; P2RY2, Antagonist mode, 10 uM) of the same compound?
A: 1.8%

Q: And the activity at 1 µM ([10]; P2RY2, Antagonist, 1 uM)?
A: 5.4%

Q: And the activity at 1 µM ([11]; 1 uM)?
A: 5.4%

Q: What about the activity at 10 µM ([11]; 10 uM) of the same compound?
A: 2.6%

Q: What about the activity at 10 µM ([12]; Antagonist mode, 10 uM) of the same compound?
A: -7.7%

Q: And the activity at 1 µM ([12]; Antagonist, 1 uM)?
A: -16%

Q: And the activity at 1 µM ([13]; 1 uM)?
A: 9.8%

Q: And the activity at 10 µM ([13]; 10 uM)?
A: 3.5%

Q: What about the activity at 1 µM ([14]; 1 uM) of the same compound?
A: 4.7%

Q: What about the activity at 10 µM ([14]; 10 uM) of the same compound?
A: -0.3%

Q: And the activity at 10 µM ([15]; CXCR4, Antagonist mode, 10 uM)?
A: -4.2%

Q: And the activity at 1 µM ([15]; CXCR4, Antagonist, 1 uM)?
A: 10.7%

Q: What about the activity at 10 µM ([16]; PTHR1, Antagonist mode, 10 uM) of the same compound?
A: -8.3%

Q: And the activity at 1 µM ([16]; PTHR1, Antagonist, 1 uM)?
A: 2.2%

Q: What about the activity at 10 µM ([17]; GPR103, Antagonist mode, 10 uM) of the same compound?
A: 7%

Q: And the activity at 1 µM ([17]; GPR103, Antagonist, 1 uM)?
A: 4.1%

Q: What about the activity at 10 µM ([18]; P2RY12, Antagonist mode, 10 uM) of the same compound?
A: -10.4%

Q: And the activity at 1 µM ([18]; P2RY12, Antagonist, 1 uM)?
A: -14.8%

Q: And the activity at 10 µM ([19]; GPR35, Antagonist mode, 10 uM)?
A: 7.3%

Q: What about the activity at 1 µM ([19]; GPR35, Antagonist, 1 uM) of the same compound?
A: 13.2%

Q: And the “antagonist activity at any of the 168 GPCRs (criterion >50% inhibition)” value ([20]; 1 and 10 micromolar)?
A: did not meet criteria for agonist or antagonist activity

Q: What about the “% Activity” value ([20]; DRD2S, Antagonist mode, 10 uM) of the same compound?
A: −11.6%

Q: What about the “% Activity” value ([20]; DRD2S, Antagonist, 1 uM) of the same compound?
A: 3.6%

Q: And the “% Activity” value ([20]; NPSR1b, Antagonist mode, 10 uM)?
A: −7.6%

Q: What about the “% Activity” value ([20]; NPSR1b, Antagonist, 1 uM) of the same compound?
A: −10.6%

Source: US12343326B2, “Psychoactive medicines and their use for treating psychiatric and neurological conditions and disorders” (Transcend Therapeutics, Inc., priority 2021, dated 2025)
